Reference: US10683297B2 (Sunshine Lake Pharma Co., Ltd., priority 2017, dated 2020)

Assays:
[1] = Compound stability in human liver microsomes; format: in vitro ADME; conditions: for half-life at 5 μM: human liver microsomes 0.5 mg protein/mL, compound 5 μM, NADPH 1.0 mM, pH 7.4, 37° C., read-out: Human T1/2; for CLint scaled at 5 μM: liver microsomes, pH 7.4, in vivo CLint extrapolated from human liver microsome incubation
Experimental: (§1) The LC/MS/MS system used in the analysis consists of an Agilent 1200 Series vacuum degasser, binary pump, well-plate autosampler, thermostatted column compartment, the Agilent G6430 Triple Quadrupole Mass Spectrometer with an electrosprayionization (ESI) source. Quantitative analysis was carried out using MRM mode. The parameters for MRM transitions are in the Table A.
(§2) An Agilent XDB-C18, 2.1×30 mm, 3.5 μM column was used for the analysis. 5 μL of the samples were injected. Analysis condition: The mobile phase was 0.1% formic acid in water (A) and 0.1% formic acid in methanol (B). The flow rate was 0.4 mL/min. And the gradient of Mobile phase was in the Table B.
(§3) Alternatively, an Agilent 6330 series LC/MS/MS spectrometer equipped with G1312A binary pumps, a G1367A autosampler and a G1314C UV detector were used in the analysis. An ESI source was used on the LC/MS/MS spectrometer. The analysis was done in positive ion mode as appropriate and the MRM transition for each analyte was optimized using standard solution. A Capcell MP-C18 100×4.6 mm I.D., 5 uM column (Phenomenex, Torrance, Calif., USA) was used during the analysis. The mobile phase was 5 mM ammonia acetate, 0.1% MeOH in water (A): 5 mM ammonia acetate, 0.1% MeOH in acetonitrile (B) (70/30, v/v). The flow rate was 0.6 mL/min. Column was maintained at ambient temperature. 20 μL of the samples were injected.
(§4) Human or rat liver microsomes incubations were conducted in duplicate in polypropylene tubes. The typical incubation mixtures consisted of human or rat liver microsomes (0.5 mg protein/mL), compounds of interest (5 μM) and NADPH (1.0 mM) in a total volume of 200 μL potassium phosphate buffer (PBS, 100 mM, pH 7.4). Compounds were dissolved in DMSO and diluted with PBS such that the final concentration of DMSO was 0.05%. The enzymatic reactions were commenced with the addition of […] after a 3-min preincubation and incubated in a water bath open to the air at 37° C. Reactions were terminated at various time points (0, 5, 10, 15, 30, 60 min) by adding equal volume of ice-cold acetonitrile. The samples were stored at […] until LC/MS/MS assays.
(§5) The concentrations of compounds in the incubation mixtures of human or rat liver microsomes were determined by a LC/MS/MS method. The ranges of the linearity in the concentration range were determined for each tested compounds.
(§6) A parallel incubation was performed using denatured microsomes as the negative control, and reactions were terminated at various time points (0, 15, 60 min) after incubation at 37° C.
(§7) Dextromethorphan (70 μM) was selected as the positive control, and reactions were terminated at various time points (0, 5, 10, 15, 30, 60 min) after incubation at 37° C. Both positive and negative control samples were included in each assay to ensure the integrity of the microsomal incubation system.
(§8) The concentrations of compounds in human or rat liver microsome incubations were plotted as a percentage of the relevant zero time point control for each reaction. The in vivo CLint were extrapolated (ref.: Naritomi, Y.; Terashita, S.; Kimura, S.; Suzuki, A.; Kagayama, A.; and Sugiyama, Y.; Prediction of human hepatic clearance from in vivo animal experiments and in vitro metabolic studies with liver microsomes from animals and humans. Drug Metab. Dispos., 2001, 29: 1316-1324).

[2] = Compound stability in rat liver microsomes; format: in vitro ADME; conditions: for CLint scaled at 5 μM: liver microsomes, pH 7.4, in vivo CLint extrapolated from rat liver microsome incubation; for half-life at 5 μM: rat liver microsomes 0.5 mg protein/mL, compound 5 μM, NADPH 1.0 mM, pH 7.4, 37° C., read-out: Rat T1/2
Experimental: as §1, §2, §3, §4, §5, §6, §7, §8

JAK1 (h) = target: T1, JAK1 (h) (Homo sapiens, UniProt P23458); test: JAK1 (h) kinase assay; format: biochemical; conditions: [γ-33P-ATP] 10 μM or KM values; 40 minutes at room temperature
T1 construct: purchased Millipore UK Ltd (assays performed there as a service)
Experimental: The above assay procedure can be used to determine the IC50 for inhibition and/or the inhibition constant, Ki. […] The IC50 value is estimated by preparing a 10 point curve using a ½ log dilution series (for example, a typical curve may be prepared using the following compound concentrations: 3 μM, 1 μM, 0.3 μM, 0.1 μM, 0.03 μM, 0.01 μM, 0.003 μM, 0.001 μM, 0.0003 μM and 0 μM).
JAK1 (h) is incubated with 20 mM Tris/HCl pH 7.5, 0.2 mM EDTA, 500 μM […], 10 mM MgAcetate and [γ-^33P-ATP] […] The reaction is initiated by the addition of the MgATP mix. After incubation for 40 minutes at room temperature, the reaction is stopped by the addition of 3% phosphoric acid solution. 10 μL of the reaction is then spotted onto a P30 filtermat and washed three times for 5 minutes in 75 mM phosphoric acid and once in methanol prior to drying and scintillation counting.
The kinase assays described herein were performed at Millipore UK Ltd, Dundee Technology Park, Dundee DD2 1SW, UK.

[3] = Pharmacokinetics after intravenous and oral administration in rats; format: in vivo
Experimental: as §1, §2, §3
The compounds disclosed herein are assessed in pharmacokinetic studies in mice, rats, dogs or monkeys. The compounds are administered as a water solution, 2% HPMC+1% TWEEN®80 in water solution, 5% DMSO+5% solutol in saline, 4% MC suspension or capsule. For the intravenous administration, the animals are generally given at about 0.5, 0.6, 1 or 2 mg/kg dose. For the oral (p.o.) dosing, mice and rats are generally given 5 or 10 mg/kg dose, and dogs and monkeys are generally given 10 mg/kg dose. The blood samples (0.3 mL) are drawn at 0.25, 0.5, 1.0, 2.0, 3.0, 4.0, 6.0, 8.0, 12 and 24 h time points or 0.083, 0.25, 0.5, 1.0, 2.0, 4.0, 6.0, 8.0 and 24 h time points and centrifuged at 3,000 or 4000 rpm for 2 to 10 min. The plasma solutions are collected, and stored at […] until analyzed by LC/MS/MS as described above.

[4] = rat, plasma, iv dosing, dose 1 mg/kg (Ex. 9: 0.6, Ex. 18: 0.5, Ex. 50: 0.96 mg/kg)

T1 sequence (P23458 whole entry): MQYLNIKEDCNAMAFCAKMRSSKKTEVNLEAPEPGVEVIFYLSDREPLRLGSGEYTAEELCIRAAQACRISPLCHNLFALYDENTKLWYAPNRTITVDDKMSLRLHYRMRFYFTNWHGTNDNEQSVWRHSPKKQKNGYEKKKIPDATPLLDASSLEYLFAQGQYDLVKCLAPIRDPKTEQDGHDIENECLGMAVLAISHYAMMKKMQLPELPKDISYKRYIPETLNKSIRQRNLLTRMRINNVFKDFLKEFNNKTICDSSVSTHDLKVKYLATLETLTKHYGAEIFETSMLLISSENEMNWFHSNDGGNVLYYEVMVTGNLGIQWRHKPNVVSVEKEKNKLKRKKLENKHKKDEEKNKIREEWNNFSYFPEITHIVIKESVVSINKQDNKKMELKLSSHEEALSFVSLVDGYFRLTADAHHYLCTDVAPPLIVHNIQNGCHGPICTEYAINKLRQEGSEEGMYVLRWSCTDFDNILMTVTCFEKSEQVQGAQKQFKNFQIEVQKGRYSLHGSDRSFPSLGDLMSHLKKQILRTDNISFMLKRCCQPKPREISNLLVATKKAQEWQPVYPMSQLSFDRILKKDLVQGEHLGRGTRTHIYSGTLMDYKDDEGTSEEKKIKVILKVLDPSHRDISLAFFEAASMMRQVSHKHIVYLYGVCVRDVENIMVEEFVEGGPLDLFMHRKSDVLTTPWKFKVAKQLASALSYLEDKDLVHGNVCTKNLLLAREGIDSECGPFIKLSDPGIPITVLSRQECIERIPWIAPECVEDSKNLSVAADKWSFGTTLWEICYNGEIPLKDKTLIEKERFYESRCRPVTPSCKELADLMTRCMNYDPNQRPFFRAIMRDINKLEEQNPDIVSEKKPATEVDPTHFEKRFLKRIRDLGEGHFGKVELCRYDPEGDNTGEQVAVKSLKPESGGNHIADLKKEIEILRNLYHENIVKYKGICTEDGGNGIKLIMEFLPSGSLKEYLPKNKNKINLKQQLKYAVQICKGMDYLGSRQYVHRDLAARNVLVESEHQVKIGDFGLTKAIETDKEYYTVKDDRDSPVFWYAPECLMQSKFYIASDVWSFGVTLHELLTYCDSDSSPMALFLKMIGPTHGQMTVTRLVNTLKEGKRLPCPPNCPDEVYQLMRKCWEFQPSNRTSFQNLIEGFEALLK

SMILES	half-life at 5 μM [1] [min]	CLint scaled at 5 μM [1] [mL/min/kg]	CLint scaled at 5 μM [2] [mL/min/kg]	half-life at 5 μM [2] [min]	IC50 (JAK1 (h)) [nM]	Clearance (CL) after iv dosing ([3]; iv dosing, dose 1 mg/kg (Ex. 9: 0.6, Ex. 18: 0.5, Ex. 50: 0.96 mg/kg)) [L/h/kg]	AUC(0-t) [3, 4] [ng·h/mL]	half-life [3, 4] [min]	Vd ([3]; rat, plasma, iv dosing, dose 1 mg/kg (Ex. 9: 0.6, Ex. 18: 0.5, Ex. 50: 0.96 mg/kg), read-out: Vss) [L/kg]	bioavailability ([3]; rat, plasma, oral (generally 5 or 10 mg/kg) versus iv dosing, read-out: F (oral bioavailability)) [%]
Cc1cnc2ccc(Nc3ncc(Cl)c(NC4CCN(c5ccc(C#N)nn5)CC4)n3)cn12 [Example 13, 6-(4-((5-chloro-2-((3-methylimidazo[1,2-a]pyridin-6-yl)amino)pyrimidin-4-yl)amino)piperidin-1-yl)pyridazine-3-carbonitrile]	21.8	79.8	23.3	107	0.5	–	–	–	–	–
N#Cc1ccc(N2CCC(Nc3nc(Nc4ccn5c(C6CC6)cnc5c4)ncc3Cl)CC2)nn1 [Example 14, 6-(4-((5-chloro-2-((3-cyclopropylimidazo[1,2-a]pyridin-7-yl)amino)pyrimidin-4-yl)amino)piperidin-1-yl)pyridazine-3-carbonitrile]	26.1	66.7	232	10.7	3	–	–	–	–	–
Cc1nnc2cc(Nc3ncc(Cl)c(NC4CCN(c5ccc(C#N)nn5)CC4)n3)ccn12 [Example 20, 6-(4-((5-chloro-2-((3-methyl-[1,2,4]triazolo[4,3-a]pyridin-7-yl)amino)pyrimidin-4-yl)amino)piperidin-1-yl)pyridazine-3-carbonitrile]	153	11.3	30	82.7	0.5	–	–	–	–	–
Cc1cnc2cc(Nc3ncc(Cl)c(NC4CCN(c5ccc(C#N)cn5)CC4)n3)cnn12 [Example 21, 6-(4-((5-chloro-2-((3-methylimidazo[1,2-b]pyridazin-7-yl)amino)pyrimidin-4-yl)amino)piperidin-1-yl)nicotinonitrile]	–	–	–	–	< 0.3	0.71	1420	43.2	0.84	37
Cc1nnc2cc(Nc3ncc(Cl)c(NC4CCN(c5ccc(C#N)cn5)CC4)n3)cnn12 [Example 25, 6-(4-((5-chloro-2-((3-methyl-[1,2,4]triazolo[4,3-b]pyridazin-7-yl)amino)pyrimidin-4-yl)amino)piperidin-1-yl)nicotinonitrile]	61	28.5	54.9	45.2	3	–	–	–	–	–
CC(O)c1cnc2cc(Nc3ncc(Cl)c(NC4CCN(c5ccc(C#N)cn5)CC4)n3)ccn12 (stereo not drawn) [Example 43, 6-(4-((5-chloro-2-((3-(1-hydroxyethyl)imidazo[1,2-a]pyridin-7-yl)amino)pyrimidin-4-yl)amino)piperidin-1-yl)nicotinonitrile]	23.5	74.1	57.5	43.2	< 0.3	–	–	–	–	–
CC(C)(F)c1nc2cc(Nc3ncc(Cl)c(NC4CCN(c5ccc(C#N)cn5)CC4)n3)ccn2n1 [Example 59, 6-(4-((5-chloro-2-((2-(2-fluoropropan-2-yl)-[1,2,4]triazolo[1,5-a]pyridin-7-yl)amino)pyrimidin-4-yl)amino)piperidin-1-yl)nicotinonitrile]	69.3	25.1	86.8	28.6	0.7	–	–	–	–	–
CC(C)(O)Cn1cnc2cc(Nc3ncc(Cl)c(NC4CCN(c5ccc(C#N)cn5)CC4)n3)ccc21 [Example 64, 6-(4-((5-chloro-2-((1-(2-hydroxy-2-methylpropyl)-1H-benzo[d]imidazol-5-yl)amino)pyrimidin-4-yl)amino)piperidin-1-yl)nicotinonitrile]	40.3	43.2	249	10	0.5	–	–	–	–	–
CC(C)(O)c1nc2cc(Nc3ncc(Cl)c(NC4CCN(c5ccc(C#N)cn5)CC4F)n3)ccn2n1 (stereo not drawn) [Example 89, 6-(4-((5-chloro-2-((2-(2-hydroxypropan-2-yl)-[1,2,4]triazolo[1,5-a]pyridin-7-yl)amino)pyrimidin-4-yl)amino)-3-fluoropiperidin-1-yl)nicotinonitrile]	–	–	–	–	2	–	–	–	–	–
